Experimental data as given in patent publication US7141557B2, “Lipid analogs for treating viral infections” (Wake Forest University, priority 1994, dated 2006).

How the values were obtained:
[1] = tested on: CEM-SS cells; assay: Cytotoxicity by uptake of TdR-H3 into total DNA in CEM-SS cells; type: cell-based; details: serial concentrations of compound
[2] = tested on: HepG2 cells; details: read-out: cytotoxicity (TC50); HepG2 cells transfected with HBV genomes; neutral red dye uptake
Method: Human hepatoblastomas (HepG2) cells were tranfected with plasmid DNA containing tandem copies of HBV genomes. These cells constituitively replicate HBV particles. HepG2 cells were treated with varying concentrations of CP-128 to determine the toxic cell concentration (TC50) by neutral red dye uptake. Also, the inhibitory concentration (IC50) of CP-128 for HBV replication was determined by ELISA.

[3] = tested on: HIV-1; assay: Anti-HIV-1 syncytial plaque assay using CEM-SS cell monolayers; type: cell-based, human immunodeficiency virus type 1 (HIV-1); details: for IC50: HIV-1 syncytial plaque formation, CEM-SS cell monolayers, plaques counted at five days; for inhibition of HIV-1 activity in CEM-SS cells: in nanomolar concentration
From the text: In brief, CEM-SS cell monolayers were infected with HIV-1. Infected cells were overlaid with RPMI-1640 medium plus 10 percent fetal bovine serum (FBS) supplemented with different concentrations of inhibitor. Plaques were counted at five days after infection. In this assay HIV-1 syncytial plaques are seen as large, multicellular foci (10 to 25 nuclei/syncytium) that appear either brown and granular or clear. Since the number of HIV-1 syncytial plaques correlates with reverse transcriptase (RT) and p24 core antigen activity in the HIV-1 infected cell overlay fluids, the syncytial plaque assay can be used to quantify the amount of infectious virus. Reverse transcriptase activity was assayed according to a described procedure (B. J. Poeisz et al., Proc. Natl. Acad. Scie. (U.S.A.) 77, 7415 (1980)). The activity of p24 core antigen induced by HIV-1 infection of CEM-SS cells was measured spectrophotometrically using the commercial Coulter EIA.

[4] = tested on: HBV-induced DNA, core antigen (HBcAg) and "e" antigen (HBeAg); assay: Mechanism studies: cellular production of HBV-induced DNA, core antigen and e antigen; type: cell-based
[5] = tested on: HBV; assay: Inhibition of HBV replication in transfected HepG2 cells by ELISA; type: cell-based; details: read-out: anti-HBV activity (IC50)
From the text: These cells constituitively replicate HBV particles.

| SMILES | IC50 [1] | CC50 [2] | IC50 [3] | inhibition of HIV-1 activity in CEM-SS cells [3] | effect on cellular production of HBV-induced DNA, core antigen (HBcAg) and "e" antigen (HBeAg) [4] | IC50 [5] |
| --- | --- | --- | --- | --- | --- | --- |
| CCCCCCCCCCCC(=O)NCC(COP(=O)([O-])OCC[N+](C)(C)C)OCCCCCCCCCC (stereo not shown) [CP-128, 1-dodecanamido-2-decyloxypropyl-3-phosphocholine] | 31.6 µM | 61.7 µM | 0.14 µM | substantially inhibit | inhibitory effect | 15.6 µM |
| CCCCCCCCCCCCOCC(COP(=O)([O-])OCC[N+](C)(C)C)OCCCCCCCCCC (stereo not shown) [CP-129, 1-dodecyloxy-2-decyloxypropyl-3-phosphocholine] | 75.7 µM | – | 0.64 µM | substantially inhibit | – | – |
| CCCCCCCCCCCC(=O)NCC(COP(=O)([O-])OCC[N+](C)(C)C)OCCCCCCCC (stereo not shown) [CP-130, 1-dodecanamido-2-octyloxypropyl-3-phosphocholine] | 67.2 µM | – | 0.11 µM | substantially inhibit | – | – |
| CCCCCCCCCCCCOC(CNC(=O)CCCCCCCCCCC)COP(=O)([O-])OCC[N+](C)(C)C (stereo not shown) [CP-131, 1-dodecanamido-2-dodecyloxypropyl-3-phosphocholine] | 36.6 µM | – | 0.32 µM | substantially inhibit | – | – |
| CCCCCCCCCCCCCCCCSC1CCCC(OP(=O)([O-])OCC[N+](C)(C)C)C1 (stereo not shown) [INK-1, 3-hexadecylthio-cyclohexylphosphocholine] | – | – | – | substantially inhibit | – | – |
